A value given as a limit tells only on which side of the number the result lay.

The source of these data is BindingDB's records for doi:10.1074/jbc.M701813200 (Jacobus Pharmaceutical, 2007).

For the test, the target named is T1, Enoyl-ACP reductase (Plasmodium falciparum, UniProt Q9BJJ9).
T1 sequence (Q9BJJ9 whole entry): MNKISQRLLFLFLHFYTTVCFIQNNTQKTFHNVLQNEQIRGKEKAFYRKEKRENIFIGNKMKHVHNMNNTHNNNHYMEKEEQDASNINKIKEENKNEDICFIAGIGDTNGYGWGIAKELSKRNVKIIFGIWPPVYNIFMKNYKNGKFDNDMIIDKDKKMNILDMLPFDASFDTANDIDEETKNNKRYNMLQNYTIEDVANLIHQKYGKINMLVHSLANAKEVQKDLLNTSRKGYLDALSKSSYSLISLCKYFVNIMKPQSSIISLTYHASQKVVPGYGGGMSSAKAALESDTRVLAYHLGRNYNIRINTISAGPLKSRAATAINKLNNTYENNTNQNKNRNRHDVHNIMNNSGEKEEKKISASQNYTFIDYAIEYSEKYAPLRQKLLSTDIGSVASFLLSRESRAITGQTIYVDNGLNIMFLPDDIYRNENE
In words: PfENR Enzymatic Inhibition Assay. The following applies: pH 7.9; 25 °C. The protocol: PfENR inhibition assays were carried out on a Cary 100 Bio Spectrophotometer or POLARstar Optima by monitoring oxidation of NADH at 340 nm. The IC50 was determined from a dose-response plot of enzyme fractional activity as a function of inhibitor concentration.

One may read the IC50 as the concentration needed to halve the response being measured. For the compound `Oc1cc(Cl)ccc1Oc1ccc(Cl)cc1Cl`, the concentration for half-maximal inhibition (IC50) was 0.073 µM. Under `Oc1cc(-c2nn[nH]n2)ccc1Oc1ccc(Cl)cc1Cl` [2-(2,4-dichlorophenoxy)-5-(2H-1,2,3,4-tetrazol-5-yl)phenol] stands > 100 µM. As for `O=C(O)c1ccc(Oc2ccc(Cl)cc2Cl)c(O)c1` [4-(2,4-dichlorophenoxy)-3-hydroxybenzoic acid], the figure is > 100 µM.
